Assay results reported in PubChem BioAssay AID248 (DTP/NCI, 2004).
Several values for one entry are separate records, joined by “and”; a condition that tells them apart may be missing. Identical values can stand only once. Inconclusive results and toxic doses are left out. Rule as the data show it: active = T/C of 150% or more; inactive = T/C below 125%.

System: L1210 leukemia ip in BDF1 mice, survival T/C
Experiment: NCI In Vivo Anticancer Drug Screen. Data for tumor model L1210 Leukemia (intraperitoneal) in B6D2F1 (BDF1) mice
Conditions: endpoint: mean survival time, higher = longer survival
Outline: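 Value reflects the ratio of survival in compound-treated mice to survival in vehicle-treated controls, with both groups carrying the same transplanted tumor.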

[1] = dose: 100.0 mg/kg/injection, schedule: Q01DX001 (ip), vehicle: saline
[2] = dose: 200.0 mg/kg/injection, schedule: Q01DX001 (ip), vehicle: saline
[3] = dose: 100.0 mg/kg/injection, schedule: Q01DX009 (ip), vehicle: saline with Tween-80
[4] = dose: 200.0 mg/kg/injection, schedule: Q01DX009 (ip), vehicle: saline with Tween-80
[5] = dose: 400.0 mg/kg/injection, schedule: Q01DX009 (ip), vehicle: saline with Tween-80
[6] = dose: 200.0 mg/kg/injection, schedule: Q04DX002 (ip), vehicle: Klucel (hydroxypropylcellulose) (HPC)
[7] = dose: 400.0 mg/kg/injection, schedule: Q04DX002 (ip), vehicle: Klucel (hydroxypropylcellulose) (HPC)
[8] = dose: 400.0 mg/kg/injection, schedule: Q01DX001 (ip), vehicle: saline
[9] = dose: 100.0 mg/kg/injection, schedule: Q04DX003 (ip), vehicle: saline with Tween-80
[10] = dose: 200.0 mg/kg/injection, schedule: Q04DX003 (ip), vehicle: saline with Tween-80
[11] = dose: 75.0 mg/kg/injection, schedule: Q04DX003 (ip), vehicle: saline

Measured: T/C

Cc1cc(Cl)c(C)c(C(=O)O)c1Cl
inactive: dose: 50.0 mg/kg/injection, schedule: Q01DX009 (ip), vehicle: saline 107 % of control | dose: 50.0 mg/kg/injection, schedule: Q04DX003 (ip), vehicle: saline 103 % of control | [1] 91 % of control | dose: 100.0 mg/kg/injection, schedule: Q01DX009 (ip), vehicle: saline 107 % of control | dose: 100.0 mg/kg/injection, schedule: Q04DX003 (ip), vehicle: saline 105 % of control | [2] 98 % of control | dose: 200.0 mg/kg/injection, schedule: Q01DX009 (ip), vehicle: saline 105 % of control | dose: 200.0 mg/kg/injection, schedule: Q04DX003 (ip), vehicle: saline 100 % of control

O=C(NO)Nc1ccc([N+](=O)[O-])cc1
inactive: dose: 100.0 mg/kg/injection, schedule: Q01DX001 (ip), vehicle: saline with Tween-80 97 % of control | [3] 93 % of control | dose: 200.0 mg/kg/injection, schedule: Q01DX001 (ip), vehicle: saline with Tween-80 90 % of control | [4] 89 % of control | dose: 400.0 mg/kg/injection, schedule: Q01DX001 (ip), vehicle: saline with Tween-80 99 % of control | [5] 98 % of control

O=C1OC(=O)C(Br)C1Br (configuration not stated)
inactive: dose: 1.56 mg/kg/injection, schedule: Q04DX003 (ip), vehicle: saline 106 % of control | dose: 3.12 mg/kg/injection, schedule: Q04DX003 (ip), vehicle: saline 106 % of control | dose: 6.25 mg/kg/injection, schedule: Q04DX003 (ip), vehicle: saline 95 % of control | dose: 12.5 mg/kg/injection, schedule: Q04DX003 (ip), vehicle: saline 108 % of control | dose: 25.0 mg/kg/injection, schedule: Q04DX003 (ip), vehicle: saline 87 % of control

O=c1c2ccccc2nc(CCN(CCCl)CCCl)n1-c1ccc(Cl)cc1
inactive: dose: 150.0 mg/kg/injection, schedule: Q04DX002 (ip), vehicle: Klucel (hydroxypropylcellulose) (HPC) 92 % of control | [6] 98 % of control | [7] 106 % of control

CCCCCCCCCCCCCCSSCCCCCCCCCCCCCC
inactive: [1] 98 % of control | [2] 92 % of control | [8] 96 % of control

CC(C)=CCC(C#N)(CCN1CCCC1)c1cccc2ccccc12 (configuration not stated)
inactive: dose: 12.5 mg/kg/injection, schedule: Q01DX009 (ip), vehicle: Klucel (hydroxypropylcellulose) (HPC) 100 % of control | dose: 25.0 mg/kg/injection, schedule: Q01DX009 (ip), vehicle: Klucel (hydroxypropylcellulose) (HPC) 118 % of control | dose: 50.0 mg/kg/injection, schedule: Q01DX009 (ip), vehicle: Klucel (hydroxypropylcellulose) (HPC) 105 % of control

CCOC(=O)CSC#N
inactive: [1] 101 % of control | dose: 100.0 mg/kg/injection, schedule: Q04DX002 (ip), vehicle: Klucel (hydroxypropylcellulose) (HPC) 95 % of control | [2] 101 % of control | [6] 91 % of control | [8] 95 % of control | [7] 107 % of control

O=C(Nc1ccc2ccccc2c1)c1ccc(Cl)cc1
inactive: [3] 104 % of control and 92 % of control | dose: 100.0 mg/kg/injection, schedule: Q04DX002 (ip), vehicle: saline with Tween-80 94 % of control and 97 % of control | [9] 97 % of control | [4] 97 % of control and 98 % of control | dose: 200.0 mg/kg/injection, schedule: Q04DX002 (ip), vehicle: saline with Tween-80 100 % of control and 101 % of control | [10] 101 % of control | [5] 95 % of control and 111 % of control | dose: 400.0 mg/kg/injection, schedule: Q04DX002 (ip), vehicle: saline with Tween-80 89 % of control and 90 % of control | dose: 400.0 mg/kg/injection, schedule: Q04DX003 (ip), vehicle: saline with Tween-80 97 % of control

CCCCCCCC/C=C\CCCCCCCC(=O)NCCCOCCOCC
inactive: [11] 94 % of control | dose: 150.0 mg/kg/injection, schedule: Q04DX003 (ip), vehicle: saline 96 % of control | dose: 300.0 mg/kg/injection, schedule: Q04DX003 (ip), vehicle: saline 96 % of control

CC(N)C(=O)NCCCl (configuration not stated)
inactive: dose: 10.0 mg/kg/injection, schedule: Q01DX Z (ip), vehicle: saline 91 % of control | dose: 30.0 mg/kg/injection, schedule: Q01DX Z (ip), vehicle: saline 104 % of control | dose: 100.0 mg/kg/injection, schedule: Q01DX Z (ip), vehicle: saline 91 % of control | dose: 300.0 mg/kg/injection, schedule: Q01DX Z (ip), vehicle: saline 93 % of control

Cc1cccn2c(=O)cc(O)nc12
inactive: dose: 50.0 mg/kg/injection, schedule: Q01DX001 (ip), vehicle: saline 112 % of control | [1] 110 % of control | [2] 116 % of control | [8] 103 % of control

CC1=CC=CC(C)(C)CC1=O
inactive: dose: 100.0 mg/kg/injection, schedule: Q04DX003 (ip), vehicle: other 102 % of control | dose: 200.0 mg/kg/injection, schedule: Q04DX003 (ip), vehicle: other 91 % of control | dose: 400.0 mg/kg/injection, schedule: Q04DX003 (ip), vehicle: other 95 % of control

O=C(COc1ccc(Cl)c(Cl)c1)Nc1cccnc1
inactive: dose: 75.0 mg/kg/injection, schedule: Q01DX009 (ip), vehicle: Klucel (hydroxypropylcellulose) (HPC) 104 % of control | dose: 150.0 mg/kg/injection, schedule: Q01DX009 (ip), vehicle: Klucel (hydroxypropylcellulose) (HPC) 96 % of control | dose: 300.0 mg/kg/injection, schedule: Q01DX009 (ip), vehicle: Klucel (hydroxypropylcellulose) (HPC) 101 % of control

CCOC(=O)C(Cc1ccc(Cl)c(Cl)c1)(NC(C)=O)C(=O)OCC
inactive: dose: 50.0 mg/kg/injection, schedule: Q04DX003 (ip), vehicle: saline with Tween-80 102 % of control | [9] 94 % of control | [10] 96 % of control

CC(=O)Nc1nc(Cl)c(N)c(SCc2ccccc2)n1
inactive: dose: 100.0 mg/kg/injection, schedule: Q01DX001 (ip), vehicle: Klucel (hydroxypropylcellulose) (HPC) 98 % of control | dose: 100.0 mg/kg/injection, schedule: Q04DX003 (ip), vehicle: Klucel (hydroxypropylcellulose) (HPC) 91 % of control | dose: 200.0 mg/kg/injection, schedule: Q01DX001 (ip), vehicle: Klucel (hydroxypropylcellulose) (HPC) 98 % of control | dose: 200.0 mg/kg/injection, schedule: Q04DX003 (ip), vehicle: Klucel (hydroxypropylcellulose) (HPC) 92 % of control | dose: 400.0 mg/kg/injection, schedule: Q01DX001 (ip), vehicle: Klucel (hydroxypropylcellulose) (HPC) 98 % of control | dose: 400.0 mg/kg/injection, schedule: Q04DX003 (ip), vehicle: Klucel (hydroxypropylcellulose) (HPC) 92 % of control

COc1ccc2c(c1)N(CCCN(C)C)c1ccccc1S2
inactive: dose: 4.68 mg/kg/injection, schedule: Q01DX009 (ip), vehicle: saline 118 % of control | dose: 9.37 mg/kg/injection, schedule: Q01DX009 (ip), vehicle: saline 115 % of control | dose: 18.75 mg/kg/injection, schedule: Q01DX009 (ip), vehicle: saline 115 % of control | dose: 18.75 mg/kg/injection, schedule: Q04DX003 (ip), vehicle: saline 104 % of control | dose: 37.5 mg/kg/injection, schedule: Q01DX009 (ip), vehicle: saline 118 % of control | dose: 37.5 mg/kg/injection, schedule: Q04DX003 (ip), vehicle: saline 114 % of control | dose: 75.0 mg/kg/injection, schedule: Q01DX009 (ip), vehicle: saline 95 % of control | [11] 121 % of control
